Assay results as given in patent US5387610A, “Peptide derivatives of collagenase inhibitor” (Research Corporation Technologies, Inc., priority 1992, dated 1995).
Where “and” joins values, the source holds several entries; their conditions need not be identical. Equal values may be shown once.

Assays:
[1] = target: T1, Porcine synovial collagenase (Sus scrofa, UniProt P21692); assay: Porcine synovial collagenase activity with type I (calf skin) collagen, gel densitometry (PSC/CSC); type: biochemical; settings: acid-soluble calf skin collagen 0.8 μM, 35° C., pH 7.7; a range means 50% inhibition lay between the values; successive lines per compound = diastereomers, higher C18 mobility first
T1 construct: purified porcine synovial collagenase; from tissue; host or cells: pig synovium (synovial enzyme, purified)
T1 sequence (P21692 100-469): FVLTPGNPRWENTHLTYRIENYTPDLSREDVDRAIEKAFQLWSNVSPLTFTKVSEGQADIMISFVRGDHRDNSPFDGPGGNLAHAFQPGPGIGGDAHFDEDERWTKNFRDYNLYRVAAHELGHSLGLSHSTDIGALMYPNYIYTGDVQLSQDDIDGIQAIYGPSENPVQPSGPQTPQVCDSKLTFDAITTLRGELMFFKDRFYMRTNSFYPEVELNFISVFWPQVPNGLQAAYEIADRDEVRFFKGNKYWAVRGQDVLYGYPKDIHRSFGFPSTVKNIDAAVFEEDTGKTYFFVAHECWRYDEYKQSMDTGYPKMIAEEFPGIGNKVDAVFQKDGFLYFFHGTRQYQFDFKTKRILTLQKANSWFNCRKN
Description: Porcine synovial collagenase activity (PSC) was measured with type I collagen essentially as described by Darlak et al. (1990). Varying amounts of inhibitor were added to the acid-soluble calf skin collagen (0.8 μM) at 35° C. in 0.05M tris-HCl, 0.2M NaCl, 5 mM CaCl2, 0.25M glucose, pH 7.7. Collagen degradation was initiated by adding purified porcine synovial collagenase and the reactions were stopped by the addition of an equal volume of sample dilution buffer (Laemmli, 1970) followed by boiling for 2-3 min. Undegraded collagen was resolved from its degradation products by polyacrylamide slab gel electrophoresis as described by Laemmli (1970). The gels were fixed in isopropanol/acetic acid/water (100:40:300 v/v) and then stained with 1% Coomassie Blue R-250 in fixing solution. After destaining, the percentage of α1 chain converted to the corresponding TC fragment was estimated by densitometry using a Bio-Rad model 610 video densitometer. IC50 values were estimated from the dependence of the percent of collagen degraded on inhibitor concentration.

[2] = target: T2, pig synovial collagenase (Sus scrofa, UniProt P21692); assay: Pig synovial collagenase with fluorogenic substrate FS-7 (PSC/FS-7); type: biochemical; settings: substrate Dnp-Pro-Leu-Gly-Leu-Trp-Ala-D-Arg-NH2; successive lines per compound = diastereomers, higher C18 mobility first
T2 construct: purified porcine synovial collagenase; from tissue; host or cells: pig synovium (synovial enzyme, purified)
T2 sequence (P21692 100-469): T1 sequence (P21692 100-469)
Description: [The source words this procedure for another target and reports this target under the same test.] Recombinant human fibroblast collagenase (rHFC) and porcine synovial gelatinase (PSG) were assayed at 37° C. by the procedure of Stack and Gray (1989). The fluorogenic metalloproteinase substrate Dnp-Pro-Leu-Gly-Leu-Trp-Ala-D-Arg-NH2 was dissolved at an initial concentration of 10 μM in 0.05M tris-HCl, 0.2M NaCl, 5 mM CaCl2, pH 7.7. Hydrolysis of the substrate at the Gly-Leu bond results in an increase in fluorescence that was monitored using an SLM-500C spectrofluorometer with excitation at 280 nm and emission at 346 nm. The reaction was initiated by addition of the enzyme; after determining the initial rate of substrate hydrolysis an aliquot of inhibitor was added and the inhibited rate redetermined. For lower affinity inhibitors (IC50>>[E0 ], where E0 is the enzyme concentration), inhibitor potencies were determined from plots of log (A0 /Ai-1) vs. log [Inhibitor], where A0 is the activity measured in the absence of inhibitor and Ai is that measured in the presence of inhibitor at concentration i (Ambrose et al., 1950). For high affinity inhibitors (IC50 =[E0 ]) only an upper limit of inhibitor potency could be estimated (Dixon and Webb, 1979).

Molecule | IC50 [1] | IC50 [2] [µM]
CC(C)CC(C(=O)N[C@@H](Cc1ccccc1)C(=O)N[C@@H](C)C(N)=O)C(C)C(=O)NO (single isomer, unassigned) [Compound 16, H4[ONHCOCH(CH3)]--DL--Leu Phe Ala--NH2] | 1 µM and > 3 µM | 
H4[ONHCO]--DL--Leu Hal Ala--NH2 [Compound 5] | 25 to 30 µM | 21
H4[ONHCO]--DL--Leu Trp--NH2 [Compound 2] | 180 µM | 370
HO--NH--CO--CH2 --CH(CH2 CH(CH3)2 --CO--Nal--Pro--NH2 [Compound 12] | 1 to 3 µM | 1.1

Second part, the molecule after the results:

IC50 [1] | IC50 [2] [µM] | Molecule
300 to 500 µM | 280 | H4[ONHCO]--DL--Leu I'-Hal--NH2 [Compound 7]
250 µM | 700 | H4[ONHCO]--DL--Leu Phe--NH2 [Compound 1]
